{"source": "patent US20050112573A1", "about": "“Method of detecting toxic substance” (priority 2001, published 2005)", "test_system": "yeast genes (level of expressed mRNA)", "assay": "DNA chip analysis of expressed mRNA of yeast genes after 2 h culture with a toxic chemical substance", "format": "cell-based, Saccharomyces cerevisiae S288C", "settings": "for The level of expressed mRNA in the presence of chemical substance/ (ratio to absence of chemical substance): stress protein genes, DNA chip", "how_it_was_run": "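Values are treated-to-control fluorescence ratios from a whole-yeast-genome DNA chip (65° C, over 12 h hybridization) using Cy3/Cy5-labelled cDNA from mRNA. Log-phase S288C cells in YPD at 25° C were exposed 2 h to a toxicant at sublethal, growth-inhibiting concentration.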", "data": [{"smiles": "C=CC=O", "note": "[(14), acrolein]", "values": [{"measurement": "The level of expressed mRNA in the presence of chemical substance/The level of expressed mRNA in the absence of chemical substance", "setting": "yeast gene YIL140W", "result": 0.9}, {"measurement": "The level of expressed mRNA in the presence of chemical substance/ (in its absence), gene YJL070C", "setting": "yeast gene YJL070C, ratio of DNA chip fluorescence intensity to that without chemical substance", "result": 1.3}, {"measurement": "The level of expressed mRNA in the presence of chemical substance/The level of expressed mRNA in the absence of chemical substance", "setting": "yeast gene YJL073W", "result": 1.1}, {"measurement": "The level of expressed mRNA in the presence of chemical substance/The level of expressed mRNA in the absence of chemical substance", "setting": "yeast gene YJL089W", "result": 1.8}, {"measurement": "The level of expressed mRNA in the presence of chemical substance/ (ratio to absence), gene YJL096W", "setting": "yeast gene YJL096W, mitochondria-located protein genes, 2 h culture with chemical", "result": 2.1}, {"measurement": "The level of expressed mRNA in the presence of chemical substance/The level of expressed mRNA in the absence of chemical substance", "setting": "yeast gene YJL116C", "result": 2.6}, {"measurement": "The level of expressed mRNA in the presence of chemical substance/ (ratio to absence of chemical substance)", "setting": "yeast gene YJL158C", "result": 0.5}, {"measurement": "The level of expressed mRNA in the presence of chemical substance/ (in its absence), gene YJL167W", "setting": "yeast gene YJL167W, ratio of DNA chip fluorescence intensity to that without chemical substance", "result": 0.9}, {"measurement": "The level of expressed mRNA in the presence of chemical substance/ (ratio to absence), gene YJL180C", "setting": "yeast gene YJL180C, mitochondria-located protein genes, 2 h culture with chemical", "result": 1.4}, {"measurement": "The level of expressed mRNA in the presence of chemical substance/ (in its absence), gene YJL216C", "setting": "yeast gene YJL216C, ratio of DNA chip fluorescence intensity to that without chemical substance", "result": 1.1}, {"measurement": "The level of expressed mRNA in the presence of chemical substance/The level of expressed mRNA in the absence of chemical substance", "setting": "yeast gene YJR004C", "result": 0.7}, {"measurement": "The level of expressed mRNA in the presence of chemical substance/The level of expressed mRNA in the absence of chemical substance", "setting": "yeast gene YJR086W", "result": 2.2}, {"measurement": "The level of expressed mRNA in the presence of chemical substance/ (ratio to absence of chemical substance)", "setting": "yeast gene YJR090C", "result": 1.0}, {"measurement": "The level of expressed mRNA in the presence of chemical substance/The level of expressed mRNA in the absence of chemical substance", "setting": "yeast gene YKL008C", "result": 0.8}, {"measurement": "The level of expressed mRNA in the presence of chemical substance/The level of expressed mRNA in the absence of chemical substance", "setting": "yeast gene YKL013C", "result": 1.4}, {"measurement": "The level of expressed mRNA in the presence of chemical substance/The level of expressed mRNA in the absence of chemical substance", "setting": "yeast gene YKL039W", "result": 0.8}, {"measurement": "The level of expressed mRNA in the presence of chemical substance/The level of expressed mRNA in the absence of chemical substance", "setting": "yeast gene YKL041W", "result": 1.3}, {"measurement": "The level of expressed mRNA in the presence of chemical substance/The level of expressed mRNA in the absence of chemical substance", "setting": "yeast gene YKL096W", "result": 0.5}, {"measurement": "The level of expressed mRNA in the presence of chemical substance/ (ratio to absence of chemical substance)", "setting": "yeast gene YKL164C", "result": 0.3}, {"measurement": "The level of expressed mRNA in the presence of chemical substance/The level of expressed mRNA in the absence of chemical substance", "setting": "yeast gene YKL165C", "result": 0.8}, {"measurement": "The level of expressed mRNA in the presence of chemical substance/The level of expressed mRNA in the absence of chemical substance", "setting": "yeast gene YKL193C", "result": 1.2}, {"measurement": "The level of expressed mRNA in the presence of chemical substance/ (in its absence), gene YKR009C", "setting": "yeast gene YKR009C, ratio of DNA chip fluorescence intensity to that without chemical substance", "result": 1.0}, {"measurement": "The level of expressed mRNA in the presence of chemical substance/ (in its absence), gene YKR034W", "setting": "yeast gene YKR034W, ratio of DNA chip fluorescence intensity to that without chemical substance", "result": 1.1}, {"measurement": "The level of expressed mRNA in the presence of chemical substance/ (ratio to absence of chemical substance)", "setting": "yeast gene YKR053C", "result": 1.3}, {"measurement": "The level of expressed mRNA in the presence of chemical substance/ in its absence, gene YKR058W", "setting": "yeast gene YKR058W, energy system protein genes, 2 h culture with the chemical, ratio to control without chemical", "result": 1.3}, {"measurement": "The level of expressed mRNA in the presence of chemical substance/ (in its absence), gene YLR006C", "setting": "yeast gene YLR006C, ratio of DNA chip fluorescence intensity to that without chemical substance", "result": 1.0}, {"measurement": "The level of expressed mRNA in the presence of chemical substance/ (ratio to absence of chemical substance)", "setting": "yeast gene YLR006C", "result": 1.0}, {"measurement": "The level of expressed mRNA in the presence of chemical substance/The level of expressed mRNA in the absence of chemical substance", "setting": "yeast gene YLR120C", "result": 0.8}, {"measurement": "The level of expressed mRNA in the presence of chemical substance/The level of expressed mRNA in the absence of chemical substance", "setting": "yeast gene YLR136C", "result": 0.7}, {"measurement": "The level of expressed mRNA in the presence of chemical substance/The level of expressed mRNA in the absence of chemical substance", "setting": "yeast gene YLR178C", "result": 2.8}, {"measurement": "The level of expressed mRNA in the presence of chemical substance/The level of expressed mRNA in the absence of chemical substance", "setting": "yeast gene YLR250W", "result": 2.5}, {"measurement": "The level of expressed mRNA in the presence of chemical substance/ in its absence, gene YLR295C", "setting": "yeast gene YLR295C, energy system protein genes, 2 h culture with the chemical, ratio to control without chemical", "result": 1.2}, {"measurement": "The level of expressed mRNA in the presence of chemical substance/ (ratio to absence), gene YLR295C", "setting": "yeast gene YLR295C, mitochondria-located protein genes, 2 h culture with chemical", "result": 1.2}, {"measurement": "The level of expressed mRNA in the presence of chemical substance/The level of expressed mRNA in the absence of chemical substance", "setting": "yeast gene YLR327C", "result": 1.5}, {"measurement": "The level of expressed mRNA in the presence of chemical substance/ (in its absence), gene YLR351C", "setting": "yeast gene YLR351C, ratio of DNA chip fluorescence intensity to that without chemical substance", "result": 1.4}, {"measurement": "The level of expressed mRNA in the presence of chemical substance/The level of expressed mRNA in the absence of chemical substance", "setting": "yeast gene YLR356W", "result": 2.2}, {"measurement": "The level of expressed mRNA in the presence of chemical substance/The level of expressed mRNA in the absence of chemical substance", "setting": "yeast gene YLR362W", "result": 1.2}, {"measurement": "The level of expressed mRNA in the presence of chemical substance/ (in its absence), gene YLR375W", "setting": "yeast gene YLR375W, ratio of DNA chip fluorescence intensity to that without chemical substance", "result": 0.9}, {"measurement": "The level of expressed mRNA in the presence of chemical substance/The level of expressed mRNA in the absence of chemical substance", "setting": "yeast gene YLR391W", "result": 0.5}, {"measurement": "The level of expressed mRNA in the presence of chemical substance/The level of expressed mRNA in the absence of chemical substance", "setting": "yeast gene YLR429W", "result": 0.7}, {"measurement": "The level of expressed mRNA in the presence of chemical substance/ in its absence, gene YML129C", "setting": "yeast gene YML129C, energy system protein genes, 2 h culture with the chemical, ratio to control without chemical", "result": 1.4}, {"measurement": "The level of expressed mRNA in the presence of chemical substance/ (ratio to absence), gene YML129C", "setting": "yeast gene YML129C, mitochondria-located protein genes, 2 h culture with chemical", "result": 1.4}, {"measurement": "The level of expressed mRNA in the presence of chemical substance/The level of expressed mRNA in the absence of chemical substance", "setting": "yeast gene YMR004W", "result": 2.2}, {"measurement": "The level of expressed mRNA in the presence of chemical substance/ (ratio to absence), gene YMR023C", "setting": "yeast gene YMR023C, mitochondria-located protein genes, 2 h culture with chemical", "result": 1.6}, {"measurement": "The level of expressed mRNA in the presence of chemical substance/The level of expressed mRNA in the absence of chemical substance", "setting": "yeast gene YMR094W", "result": 2.8}, {"measurement": "The level of expressed mRNA in the presence of chemical substance/The level of expressed mRNA in the absence of chemical substance", "setting": "yeast gene YMR104C", "result": 1.1}, {"measurement": "The level of expressed mRNA in the presence of chemical substance/ (ratio to absence of chemical substance)", "setting": "yeast gene YMR186W", "result": 0.6}, {"measurement": "The level of expressed mRNA in the presence of chemical substance/The level of expressed mRNA in the absence of chemical substance", "setting": "yeast gene YMR219W", "result": 0.5}, {"measurement": "The level of expressed mRNA in the presence of chemical substance/The level of expressed mRNA in the absence of chemical substance", "setting": "yeast gene YMR226C", "result": 1.6}, {"measurement": "The level of expressed mRNA in the presence of chemical substance/ in its absence, gene YMR267W", "setting": "yeast gene YMR267W, energy system protein genes, 2 h culture with the chemical, ratio to control without chemical", "result": 1.0}, {"measurement": "The level of expressed mRNA in the presence of chemical substance/ (ratio to absence), gene YMR267W", "setting": "yeast gene YMR267W, mitochondria-located protein genes, 2 h culture with chemical", "result": 1.0}, {"measurement": "The level of expressed mRNA in the presence of chemical substance/ in its absence, gene YMR267W", "setting": "yeast gene YMR267W, ratio of DNA chip fluorescence intensity to that without chemical substance", "result": 1.0}, {"measurement": "The level of expressed mRNA in the presence of chemical substance/The level of expressed mRNA in the absence of chemical substance", "setting": "yeast gene YMR275C", "result": 0.8}, {"measurement": "The level of expressed mRNA in the presence of chemical substance/The level of expressed mRNA in the absence of chemical substance", "setting": "yeast gene YMR276W", "result": 1.2}, {"measurement": "The level of expressed mRNA in the presence of chemical substance/ (in its absence), gene YMR278W", "setting": "yeast gene YMR278W, ratio of DNA chip fluorescence intensity to that without chemical substance", "result": 0.8}, {"measurement": "The level of expressed mRNA in the presence of chemical substance/ (in its absence), gene YMR293C", "setting": "yeast gene YMR293C, ratio of DNA chip fluorescence intensity to that without chemical substance", "result": 1.3}, {"measurement": "The level of expressed mRNA in the presence of chemical substance/The level of expressed mRNA in the absence of chemical substance", "setting": "yeast gene YMR314W", "result": 1.0}]}]}
